Molecules are shown by their SMILES. Calls of active or inactive are those of the source. No cut-off for these calls is given here.

Experiment [1] deals with Saccharomyces cerevisiae. Kind of experiment: Antifungal activity against Saccharomyces cerevisiae 58W3D4 assessed as reduction of doubling time at 0.001 to 100 mM. The format is functional, organism-based.
For experiment [2], the system named is Saccharomyces cerevisiae. Kind of experiment: Antifungal activity against Saccharomyces cerevisiae BW15 assessed as reduction of doubling time at 0.001 to 100 mM. The format is functional, organism-based.
In experiment [3] the test system is Saccharomyces cerevisiae. The experiment can be described thus: Antifungal activity against Saccharomyces cerevisiae FL100 ATCC 28383 assessed as reduction of doubling time at > 10 mM. The format is functional, organism-based.
The subject of experiment [4] is Botrytis cinerea. The experiment can be described thus: Antifungal activity against Botryotinia fuckeliana T4 assessed as inhibition of spore germination after 5 days. The format is functional, organism-based.
Experiment [5] deals with Botrytis cinerea. Kind of experiment: Antifungal activity against Botryotinia fuckeliana T4 assessed as inhibition of mycelial growth 2.4 mM at pH 7 after 5 days. The format is functional.
Experiment [6] concerns Botrytis cinerea. Kind of experiment: Antifungal activity against Botryotinia fuckeliana T4 assessed as inhibition of mycelial growth after 5 days. In kind it is functional, organism-based.
Experiment [7] has as its system Botrytis cinerea. Kind of experiment: Antifungal activity against Botryotinia fuckeliana T4 assessed as inhibition of mycelial growth 2.4 mM at pH 4 after 5 days. The format is functional.

`CC(N)CC(=O)O` (racemic): the result in the experiment with Saccharomyces cerevisiae [1] and with Saccharomyces cerevisiae [2] was inactive. Also, in the experiment with Saccharomyces cerevisiae [3], the result was Active. The inhibition result in the experiment on Botrytis cinerea [4] and in the experiment on Botrytis cinerea [6] was “Dose-dependent effect” in each case. In addition, the “inhibition (INH)” value with Botrytis cinerea [5] came to 40%; in the experiment with Botrytis cinerea [7], 100%.
